Measurements from patent publication US20260308152A1, “METHODS OF MAKING 2-AMINO-1-(3-HYDROXY-2,6-DIMETHYLPHENYL)-5,6-DIMETHYL-1H-PYRROLO-[2,3-B]PYRIDINE-3-CARBOXAMIDE, A MYT1 INHIBITOR” (Repare Therapeutics Inc., priority 2022, published 2026).
Converted amounts (≈) assume the structure as drawn. Marks after values point to notes of the source that are not given here.

Tests used:
Assay type in all cases: physicochemical
[1] = Chiral acid salt screen: approximate solubility of starting material in solvents; conditions: ambient temperature, 3 days
Description: INT 1f salts (50-60 mg) were weighed into 4 ml vials. Solvent (~0.2-1.0 mL) was added to each vial, and the vials were stirred at ambient temperature for 3 days. Additional solvent was added to vials with thick slurries, and additional salts were added to vials with clear solutions.
In this example, the resolution of INT 1g and Compound 1 via chiral salts is summarized.

[2] = Solubility in anisole at various temperatures
From the text: The solubility of racemic INT 1f (recrystallized from anisole) in anisole at various temperatures was investigated (Table 28).
The solubility of (S)-INT 1f/(R)-CSA salt in anisole at various temperatures was also investigated

[3] = Solubility of INT 1b in organic solvents; conditions: most organic solvents (FIG. 1)
From the text: FIG. 1 is a graph illustrating the solubility of INT 1b in organic solvents, including heptane, toluene, xylenes, isopropyl acetate (IPAc), ethyl acetate (EtOAc), methyl ethyl ketone (MEK), methyl t-butyl ether (MTBE), dichloromethane (DCM), methanol (MeOH), ethanol (EtOH), isopropanol (iPrOH), acetonitrile (MeCN), water, 5 M H2SO4, and 1 M H2SO4.

[4] = Aromatic solvent screen: solubility of INT 1f/(R)-CSA salt
From the text: Following the encouraging result employing anisole as the solvent and switching to (R)-CSA to afford the desired diastereomer, the following common aromatic solvents were screened: 1,3-dimethoxybenzene;
2-, 3-, and 4-methyanisoles; o, m, and p-xylenes; and α,α,α-trifluorotoluene (Table 18). […] In addition to anisole, 4-methylanisole and 1,3-dimethoxybenzene also afforded enantioenriched crystalline solids with enantiomeric ratios (e.r.) of 90:10 and 87:13, respectively. However, the highest e.r. was obtained with anisole (92:8).

| Structure (SMILES) | Approximate Solubility of Starting Material ([1]; 1,4-Dioxane) | Approximate Solubility of Starting Material ([1]; Acetone:water (9:1)) | Approximate Solubility of Starting Material ([1]; Anisole) | Approximate Solubility of Starting Material ([1]; DCM) | Approximate Solubility of Starting Material ([1]; EtOAc) | Approximate Solubility of Starting Material ([1]; EtOH:Heptane (1:1)) | Approximate Solubility of Starting Material ([1]; EtOH) | Approximate Solubility of Starting Material ([1]; MeCN) | Approximate Solubility of Starting Material ([1]; THF) | Approximate Solubility of Starting Material ([1]; Toluene) | also measured |
| --- | --- | --- | --- | --- | --- | --- | --- | --- | --- | --- | --- |
| CC1(C)C2CCC1(CS(=O)(=O)O)C(=O)C2Br.COc1ccc(C)c(-n2c(N)c(C#N)c3cc(C)c(C)nc32)c1C.O | Highly soluble | Highly soluble | Soluble | Highly soluble | Very soluble | Highly soluble | Very soluble | Highly soluble | Highly soluble | Soluble |  |
| COc1ccc(C)c(-n2c(N)c(C#N)c3cc(C)c(C)nc32)c1C.O=P1(O)Oc2ccc3ccccc3c2-c2c(ccc3ccccc23)O1 | Highly soluble | Very soluble | Very soluble | Highly soluble | Soluble | Soluble | Very soluble | Soluble | Highly soluble | Very soluble |  |
| COc1ccc(C)c(-n2c(N)c(C#N)c3cc(C)c(C)nc32)c1C.Cc1ccc(C(=O)O[C@H](C(=O)O)[C@H](OC(=O)c2ccc(C)cc2)C(=O)O)cc1 | Very soluble | Soluble | Soluble | Very soluble | Soluble | Soluble | Soluble | Soluble | Very soluble | Soluble |  |
| COc1ccc(C)c(-n2c(N)c(C#N)c3cc(C)c(C)nc32)c1C (racemic) [INT 1f, 2-Amino-1-(3-methoxy-2,6-dimethylphenyl)-5,6-dimethyl-1H-pyrrolo[2,3-b]-pyridine-3-carbonitrile] |  |  |  |  |  |  |  |  |  |  | Solubility in anisole ([2]; racemic, crystal form recrystallized from anisole, 25° C.): 14.01 mg/mL (≈ 43.7 mM); Solubility in anisole ([2]; racemic, crystal form recrystallized from anisole, 30° C.): 17.72 mg/mL (≈ 55.3 mM); Solubility in anisole ([2]; racemic, crystal form recrystallized from anisole, 40° C.): 21.26 mg/mL (≈ 66.4 mM); Solubility in anisole ([2]; racemic, crystal form recrystallized from anisole, 50° C.): 25.99 mg/mL (≈ 81.1 mM); Solubility in anisole ([2]; racemic, crystal form recrystallized from anisole, 60° C.): 46.5 mg/mL (≈ 145 mM) |
| CC1(C)[C@H]2CC[C@]1(CS(=O)(=O)O)C(=O)C2.COc1ccc(C)c(-n2c(N)c(C#N)c3cc(C)c(C)nc32)c1C [(S)-INT 1f/(R)-CSA, (S)-2-Ammonium-1-(3-methoxy-2,6-dimethylphenyl)-5,6-dimethyl-1H-pyrrolo[2,3-b]-pyridine-3-carbonitrile/(R)-CSA] |  |  |  |  |  |  |  |  |  |  | Solubility in anisole ([2]; salt, 21° C.): 2.39 mg/mL; Solubility in anisole ([2]; salt, 30° C.): 3.78* mg/mL; Solubility in anisole ([2]; salt, 40° C.): 3.37 mg/mL; Solubility in anisole ([2]; salt, 50° C.): 4.20 mg/mL; Solubility in anisole ([2]; salt, 60° C.): 7.29 mg/mL |
| Cc1cc2c(C(N)=O)c(N)n(-c3c(C)ccc(O)c3C)c2nc1C [Compound 1/Acid d] |  |  | Partially soluble | Partially soluble |  | Partially soluble |  |  |  |  |  |
| Cc1cc2c(C(N)=O)c(N)n(-c3c(C)ccc(O)c3C)c2nc1C [Compound 1/Acid f] |  | Soluble | Soluble | Partially soluble |  | Soluble | Partially soluble | Partially soluble | Soluble |  |  |
| Cc1cc2c(C(N)=O)c(N)n(-c3c(C)ccc(O)c3C)c2nc1C [Compound 1/Acid h] |  | Soluble |  | Partially soluble |  |  | Soluble |  |  |  |  |
| Cc1cc(Br)c(=O)[nH]c1C [INT 1b] |  |  |  |  |  |  |  |  |  |  | solubility in most organic solvents [3]: poor solubility |
| CC1(C)C2CC[C@]1(CS(=O)(=O)O)C(=O)C2.COc1ccc(C)c(-n2c(N)c(C#N)c3cc(C)c(C)nc32)c1C [INT 1f/(R)-CSA] |  |  |  |  |  |  |  |  |  |  | solubility ([4]; 1,3-dimethoxybenzene and anisole): high solubility; solubility ([4]; 2-, 3-, 4-methyanisole with heating): good solubility; solubility ([4]; other aromatic solvents (xylenes, α,α,α-trifluorotoluene)): poor solubility |

Second part, led by results:

| Approximate Solubility of Starting Material ([1]; 1,4-Dioxane) | Approximate Solubility of Starting Material ([1]; Acetone:water (9:1)) | Approximate Solubility of Starting Material ([1]; Anisole) | Approximate Solubility of Starting Material ([1]; DCM) | Approximate Solubility of Starting Material ([1]; EtOAc) | Approximate Solubility of Starting Material ([1]; EtOH:Heptane (1:1)) | Approximate Solubility of Starting Material ([1]; EtOH) | Approximate Solubility of Starting Material ([1]; MeCN) | Approximate Solubility of Starting Material ([1]; THF) | Approximate Solubility of Starting Material ([1]; Toluene) | Structure (SMILES) | also measured |
| --- | --- | --- | --- | --- | --- | --- | --- | --- | --- | --- | --- |
| Highly soluble | Soluble | Soluble | Highly soluble | Soluble | Soluble | Soluble | Soluble | Highly soluble | Soluble | COc1ccc(C)c(-n2c(N)c(C#N)c3cc(C)c(C)nc32)c1C.O=C(O[C@H](C(=O)O)[C@H](OC(=O)c1ccccc1)C(=O)O)c1ccccc1 [INT 1f/(+)-2,3-Dibenzoyl-D-tartaric Acid] |  |
| Soluble | Highly soluble | Very soluble | Very soluble | Soluble | Soluble | Very soluble | Highly soluble | Very soluble | Highly soluble | CC1(C)C2CC[C@@]1(CS(=O)(=O)O)C(=O)C2.COc1ccc(C)c(-n2c(N)c(C#N)c3cc(C)c(C)nc32)c1C [INT 1f/(S)-CSA] |  |
| Soluble | Soluble | Very soluble | Highly soluble | Highly soluble | Soluble | Very soluble | Very soluble | Highly soluble | Very soluble | COc1ccc(C)c(-n2c(N)c(C#N)c3cc(C)c(C)nc32)c1C.O=P1(O)Oc2c(-c3c(C4CCCCC4)cc(C4CCCCC4)cc3C3CCCCC3)cc3ccccc3c2-c2c(c(-c3c(C4CCCCC4)cc(C4CCCCC4)cc3C3CCCCC3)cc3ccccc23)O1 [INT 1f/(S)-TCYP] |  |
| Highly soluble | Highly soluble | Very soluble | Highly soluble | Very soluble | Soluble | Soluble | Soluble | Highly soluble | Highly soluble | CC(C)c1cc(C(C)C)c(-c2cc3ccccc3c3c2OP(=O)(O)Oc2c(-c4c(C(C)C)cc(C(C)C)cc4C(C)C)cc4ccccc4c2-3)c(C(C)C)c1.COc1ccc(C)c(-n2c(N)c(C#N)c3cc(C)c(C)nc32)c1C [INT 1f/(S)-TRIP] |  |
